Laboratory results from PubChem BioAssay (NCI).
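All cell lines were grown in 96-well plates and treated with compound for 48 hours. At the GI50, growth is halved. Definition used: TGI = concentration required for complete inhibition of growth.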

Columns and labels:
Assay in all cases: NCI tumour cell line growth inhibition, 48 h
NCI-H226 lung = test system: NCI-H226 lung
SN12C renal = test system: SN12C renal
RPMI-8226 leukemia = test system: RPMI-8226 leukemia
NCI-H522 lung = test system: NCI-H522 lung
PC-3 prostate = test system: PC-3 prostate
MDA-MB-231 breast = test system: MDA-MB-231 breast
A498 renal = test system: A498 renal
HCC-2998 colon = test system: HCC-2998 colon
MALME-3M melanoma = test system: MALME-3M melanoma
HS 578T breast = test system: HS 578T breast
A549 NSCLC = test system: A549 NSCLC
COLO 205 colon = test system: COLO 205 colon
OVCAR-3 ovarian = test system: OVCAR-3 ovarian
M14 melanoma = test system: M14 melanoma
T-47D breast = test system: T-47D breast
HCT-15 colon = test system: HCT-15 colon
HT29 colon = test system: HT29 colon
786-0 renal = test system: 786-0 renal
TK-10 renal = test system: TK-10 renal
UACC-62 melanoma = test system: UACC-62 melanoma
U251 CNS = test system: U251 CNS
NCI-H460 lung = test system: NCI-H460 lung
KM12 colon = test system: KM12 colon
SK-MEL-5 melanoma = test system: SK-MEL-5 melanoma
LOX IMVI melanoma = test system: LOX IMVI melanoma
OVCAR-4 ovarian = test system: OVCAR-4 ovarian
OVCAR-5 ovarian = test system: OVCAR-5 ovarian

SMILES: NC(=O)c1ncn(C2OC(CO)C(O)C2O)c1N (stereo not drawn)
- TGI (NCI-H226 lung): > 100 µM
- GI50 (SN12C renal): > 100 µM
- TGI (SN12C renal): > 100 µM
- GI50 (RPMI-8226 leukemia): > 100 µM
- TGI (RPMI-8226 leukemia): > 100 µM
- GI50 (NCI-H522 lung): > 100 µM
- TGI (NCI-H522 lung): > 100 µM
- GI50 (PC-3 prostate): > 100 µM
- TGI (PC-3 prostate): > 100 µM
- GI50 (MDA-MB-231 breast): > 100 µM
- TGI (MDA-MB-231 breast): > 100 µM
- GI50 (A498 renal): > 100 µM
- TGI (A498 renal): > 100 µM
- GI50 (HCC-2998 colon): > 100 µM
- TGI (HCC-2998 colon): > 100 µM
- GI50 (MALME-3M melanoma): > 100 µM
- TGI (MALME-3M melanoma): > 100 µM
- GI50 (HS 578T breast): > 100 µM
- TGI (HS 578T breast): > 100 µM
- GI50 (A549 NSCLC): > 100 µM
- TGI (A549 NSCLC): > 100 µM
- GI50 (COLO 205 colon): > 100 µM
- TGI (COLO 205 colon): > 100 µM
- GI50 (OVCAR-3 ovarian): > 100 µM
- TGI (OVCAR-3 ovarian): > 100 µM
- GI50 (M14 melanoma): > 100 µM
- TGI (M14 melanoma): > 100 µM
- GI50 (T-47D breast): > 100 µM
- TGI (T-47D breast): > 100 µM
- GI50 (HCT-15 colon): > 100 µM
- TGI (HCT-15 colon): > 100 µM
- GI50 (HT29 colon): > 100 µM
- TGI (HT29 colon): > 100 µM
- GI50 (786-0 renal): > 100 µM
- TGI (786-0 renal): > 100 µM
- GI50 (TK-10 renal): > 100 µM
- TGI (TK-10 renal): > 100 µM
- GI50 (UACC-62 melanoma): > 100 µM
- TGI (UACC-62 melanoma): > 100 µM
- GI50 (U251 CNS): > 100 µM
- TGI (U251 CNS): > 100 µM
- GI50 (NCI-H460 lung): > 100 µM
- TGI (NCI-H460 lung): > 100 µM
- GI50 (KM12 colon): > 100 µM
- TGI (KM12 colon): > 100 µM
- GI50 (SK-MEL-5 melanoma): > 100 µM
- TGI (SK-MEL-5 melanoma): > 100 µM
- GI50 (LOX IMVI melanoma): > 100 µM
- TGI (LOX IMVI melanoma): > 100 µM
- GI50 (OVCAR-4 ovarian): > 100 µM
- TGI (OVCAR-4 ovarian): > 100 µM
- GI50 (OVCAR-5 ovarian): > 100 µM
- TGI (OVCAR-5 ovarian): > 100 µM
